These results are taken from patent publication US11696917B2, “Agent enhancing antitumor effect using pyrazolo[3,4-d]pyrimidine compound” (TAIHO PHARMACEUTICAL CO., LTD., priority 2017, dated 2023).

In this experiment the test system is SK-BR-3 (human breast cancer). In words: Combination of Compound 1 and other antitumor agents (in vitro), CellTiter-Glo, median effect method. The experiment is classed as cell-based. As to the method: The supplier of each reagent, the suppliers of tumor cell lines, the media used, and the numbers of cells to be inoculated are shown in the tables below.
The cells were inoculated at 20 μL/well to a 384-well culture plate (Corning Inc.). The plate inoculated with the cells were cultured in an incubator set to 37° C. and 5% CO2. On the day following inoculation, each of mixed solutions of Compound 1 and each other antitumor agent at varying combinations of concentrations was added to the cells. Specifically, 8 serial dilutions (including (0 nM)) of Compound 1 and 10 serial dilutions (including (0 nM)) of the other antitumor agent were prepared using Leibovitz's L-15 medium containing 10% FBS, or ATCC formulated RPMI-1640 medium containing 10% FBS. Drug solutions in which equal amounts of the respective serial dilutions of the compounds were dispensed were mixed at a ratio of 1:1 to prepare a total of 80 mixed drug solutions including every combination. Each of these mixed drug solutions was added at 5 μL/well (N=4) to the plate, followed by further culture for 3 days under conditions of 37° C. and 5% CO2.
Three days later, CellTiter-Glo™ 2.0 Reagent (Promega Corporation) was added thereto at 25 μL/well, and chemiluminescence was measured using a plate reader (EnSpire® Multimode Plate Reader, PerkinElmer Japan Co., Ltd.).
The enhancement of an effect by combined use of the drugs was evaluated according to a method known in the art (a method described in Trends Pharmacol. Sci., 4, 450-454, 1983 or Pharmacol Rev., 58 (3), 621-81, 2006).
An average value from 4 wells of each combination was calculated from the obtained data, and a cell survival rate normalized against a control supplemented with a medium containing a vehicle was calculated. A Fa (fraction of affect) value was calculated by subtracting the cell survival rate from 1. Median effect analysis software CalcuSyn 2.0 (CalcuSyn, Inc.) for calculation by the median effect method was used in the calculation of CI.
As for the combinations of the concentrations of both the drugs for calculating CI, a Fa value closer to 1 presumably means a concentration range in which one of the drugs had too strong an effect, and a Fa value closer to 0 presumably means a concentration range in which any of the drugs had too weak an effect. Since these concentration ranges were not appropriate for the discussion of a synergistic effect, combinations that satisfied 0.2 S Fa 0.8 were extracted from the combinations of the respective concentrations of Compound 1 and the other antitumor agent on the basis of the calculated Fa value.
An effect of combined use was determined as shown in the table below (Pharmacol Rev., 58 (3), p. 621-81, 2006).
(In ATP-based viability assays light output follows the ATP content of the culture.)

[1] abbreviates: Compound 1 0.412 nM + Cisplatin 6185 nM, ratio 1:15030, SK-BR-3.
[2] abbreviates: Compound 1 1.24 nM + Cisplatin 6185 nM, ratio 1:5010, SK-BR-3.
Where [3] appears, read: Compound 1 3.70 nM + Cisplatin 687 nM, ratio 1:186, SK-BR-3.
Where [4] appears, read: Compound 1 3.70 nM + Cisplatin 2062 nM, ratio 1:557, SK-BR-3.
Where [5] appears, read: Compound 1 3.70 nM + Cisplatin 6185 nM, ratio 1:1670, SK-BR-3.

Turning to `C=CC(=O)N1CCC[C@@H](n2nc(C(=O)Nc3ccc(CC(=O)N(C)C)c(C)c3C)c3c(N)ncnc32)C1` [Compound 1, (R)-1-(1-acryloylpiperidin-3-yl)-4-amino-N-(4-(2-(dimethylamino)-2-oxoethyl)-2,3-dimethylphenyl)-1H-pyrazolo[3,4-d]pyrimidine-3-carboxamide], the CI reads like this: under setting [1], 0.86; under setting [2], 0.84; under setting [3], 0.78; under setting [4], 0.79; under setting [5], 0.63. In addition, the Fa amounted to 0.50 under setting [1]; 0.55 under setting [2]; 0.22 under setting [3]; 0.37 under setting [4]; 0.65 under setting [5].
